Source: PubChem BioAssay (NCI)
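Following 48 hours of exposure in 96-well plates, responses at five concentrations were used to interpolate endpoints linearly. GI50 marks 50% less growth. The concentration for full growth arrest is given as TGI.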

Tests used:
Assay in all cases: DTP human tumour cell line panel, 48 h
[1] = system: MDA-MB-231 breast
[2] = system: SF-295 CNS
[3] = system: SK-MEL-2 melanoma
[4] = system: NCI-H226 lung
[5] = system: HCC-2998 colon
[6] = system: BT-549 breast
[7] = system: HL-60(TB) leukemia
[8] = system: HS 578T breast
[9] = system: SK-OV-3 ovarian
[10] = system: COLO 205 colon

Row | Structure (SMILES) | TGI [1] [µM] | TGI [2] [µM] | TGI [3] [µM] | TGI [4] [µM] | TGI [5] [µM] | TGI [6] [µM] | TGI [7] [µM] | TGI [8] [µM] | TGI [9] [µM] | TGI [10] [µM] | GI50 [1] [µM] | GI50 [4] [µM] | GI50 [2] [µM] | GI50 [3] [µM] | GI50 [5] [µM] | GI50 [6] [µM] | GI50 [7] [µM] | GI50 [8] [µM] | GI50 [9] [µM] | GI50 [10] [µM]
1 | Oc1ccccc1/C=N/c1nc2cc3sc(/N=C/c4ccccc4O)nc3cc2s1 | > 100 | > 100 | > 100 | 98.5 | > 100 | > 100 | > 73.3 | > 89 | > 100 | 20.7 |  |  |  |  |  |  |  |  |  | 
2 | C=CCn1c(=O)ccn(COCCO)c1=O | > 100 |  | > 100 | > 100 | > 100 | > 100 | > 100 | > 100 |  | > 100 |  |  |  |  |  |  |  |  |  | 
3 | CN(C)Cc1cc(C(=O)/C=C/c2ccc(O)cc2)cc(CN(C)C)c1O | 79 | > 100 | > 100 | > 100 | > 100 | > 100 | 49.9 | > 100 |  | 33.9 |  |  |  |  |  |  |  |  |  | 
4 | CCN(CC)CCOc1ccc(N2C(=O)c3cc(OC)c(OC)cc3C2=O)cc1 | > 100 | > 100 | > 100 | > 100 | > 100 | > 100 | > 100 | > 100 | > 100 | > 100 |  |  |  |  |  |  |  |  |  | 
5 | CC1CC[C@@]2(OC1)OC1C[C@H]3[C@@H]4CC[C@H]5CC(OC6OC(CO)C(OC7OC(CO)C(O)C(O)C7OC7OC(CO)C(O)C(O)C7O)C(O)C6O)CCC5(C)[C@H]4CCC3(C)C1[C@@H]2C (some centres not stated) | 3.04 | 11 | 8.05 | 3.37 | 2.06 | 3.62 | 11.6 | 7.44 | 6.04 | 1.77 |  |  |  |  |  |  |  |  |  | 
6 | O=P(c1ccccc1)(c1ccccc1)N1O[C@@H](c2ccccc2)C=C[C@H]1c1ccccc1 | 21.1 | 28.7 | 24.9 | 29.4 | 27.5 | 32.4 | 28.4 | 44.6 | 33.4 | 31.2 |  |  |  |  |  |  |  |  |  | 
7 | C=CC[C@]12C[C@@H](C(=O)OC)N(C(=O)OC)[C@H]1N(S(=O)(=O)c1ccccc1)c1ccccc12 | > 100 |  | > 100 | > 100 | > 100 | > 100 | > 100 | > 100 | > 100 |  |  |  |  |  |  |  |  |  |  | 
8 | CCCNC(=O)CCC(C)[C@H]1CCC2C3C(C[C@H](OC(C)=O)[C@@]21C)[C@@]1(C)CCC2(C[C@H]1C[C@H]3OC(C)=O)OOC1(CCC(C)CC1)OO2 (some centres not stated) | 98.4 | 52.5 | 52.9 | > 100 | 79.1 | 60.5 | 32.4 | > 100 | > 100 | 29.9 |  |  |  |  |  |  |  |  |  | 
9 | O=C1c2cc3c(cc2CC1Br)CCC3 (configuration not stated) | 13.9 | 11.5 | 5.2 | 11.4 | 13.4 | 4.49 | > 20.1 | > 100 | 15.9 | 3.85 |  |  |  |  |  |  |  |  |  | 
10 | CC(C)/C(Cl)=N\OC(=O)Nc1ccc(C#N)cc1 | 28.1 | 33.2 | 25.6 | 27.2 | 29.9 | 26.6 | > 22.7 | 39.8 | 31.1 | 3.24 |  |  |  |  |  |  |  |  |  | 
11 | CN(C)CCCN1C(=S)N(CCCN(C)C)c2c3cc(O)ccc3nc3c([N+](=O)[O-])ccc1c23 | 25.5 | 19 | 15.2 | 13.7 | 8.02 | 28 | 22.1 | 24.4 | 17.2 | 15.9 |  |  |  |  |  |  |  |  |  | 
12 | O=C(NCCN1CCOCC1)c1ccc2cc(C(=O)N3CC(CCl)c4ccc([N+](=O)[O-])cc43)[nH]c2c1 (configuration not stated) | 36.3 | 13.3 | 32.7 | > 100 | 29.7 | 92.3 | 94.7 | 52.4 | 40.5 | > 100 |  |  |  |  |  |  |  |  |  | 
13 | CC(C)COP(=O)(OCC(C)C)C(NS(=O)(=O)c1ccccc1)(C(F)(F)F)C(F)(F)F | 5.56 | 37 | 14.3 | 39.9 | 18.5 | 19.6 | 4.13 | 97.9 | 29.9 | 3.94 |  |  |  |  |  |  |  |  |  | 
14 | COc1ccc(C2(CC(C)O)SCCCS2)cc1 (configuration not stated) | > 100 | > 100 | > 100 | > 100 | > 100 | > 100 | > 100 | > 100 | > 100 | > 100 |  |  |  |  |  |  |  |  |  | 
15 | O=C(c1cc2ccccc2cc1O)N1CCCCC1 | > 100 | > 100 | 46.5 | 85.9 | 49.8 | 84.2 | 46.9 | > 100 | > 100 | > 100 |  |  |  |  |  |  |  |  |  | 
16 | C/C(CC1C2CCCC1C2)=N\NC(N)=O (configuration not stated) | > 100 | > 100 | > 100 | > 100 | > 100 | > 100 | > 100 | > 100 | > 100 | > 100 |  |  |  |  |  |  |  |  |  | 

Row | Structure (SMILES) | TGI [1] [µM] | TGI [2] [µM] | TGI [3] [µM] | TGI [4] [µM] | TGI [5] [µM] | TGI [6] [µM] | TGI [7] [µM] | TGI [8] [µM] | TGI [9] [µM] | TGI [10] [µM] | GI50 [1] [µM] | GI50 [4] [µM] | GI50 [2] [µM] | GI50 [3] [µM] | GI50 [5] [µM] | GI50 [6] [µM] | GI50 [7] [µM] | GI50 [8] [µM] | GI50 [9] [µM] | GI50 [10] [µM]
17 | O=c1cc(N=P(c2ccccc2)(c2ccccc2)c2ccccc2)n(-c2ccccc2)c(=O)n1-c1ccccc1 | 78.9 | 85.8 | 58.1 | 22.2 | 69.7 | 95.6 | 44.6 | 58 | 76.1 |  |  |  |  |  |  |  |  |  |  | 
18 | O=c1c2cc3c(cc2[nH]c2ncccc12)OCO3 | > 10 | > 10 | > 10 | > 10 | > 10 | > 10 | > 10 | > 10 | > 10 | > 10 |  |  |  |  |  |  |  |  |  | 
19 | CCCn1c(CN(Cc2nc3ccccc3n2CCC)Cc2nc3ccccc3n2CCC)nc2ccccc21 | 7.86 | 30.7 | 35.4 | 27.3 | 30 | > 58.4 | 4.46 | > 95.2 | > 100 | 13 |  |  |  |  |  |  |  |  |  | 
20 | Cc1nn(C(=O)Cc2ccccc2)c2c1C(c1ccc(O)cc1)SC(N)=N2 (configuration not stated) | > 100 | > 100 |  | > 100 | > 100 | > 100 | > 100 | > 100 | > 100 | > 100 |  |  |  |  |  |  |  |  |  | 
21 | COc1ccc(C(OCC2OC(n3cc(C)c(=O)[nH]c3=O)CC2n2cc(Cn3cc(F)c(=O)[nH]c3=O)nn2)(c2ccccc2)c2ccccc2)cc1 (configuration not stated) | 7.7 | 19.4 | 24.8 | 36.7 | 15.1 | 28.8 | 5.83 | > 100 | 22.9 | 27 |  |  |  |  |  |  |  |  |  | 
22 | O=c1oc(-c2ccc(O)c(O)c2)cc2cccc(O)c12 | 46.9 | 80.2 | 69.7 | 58.7 | 37 | 49 | 50.2 | 73.2 | 74.9 | > 48.3 | 14.1 | 15.2 |  |  |  |  |  |  |  | 
23 | Nc1c(-c2cccc3ccccc23)c2ccc([N+](=O)[O-])cc2c(=O)n1-c1nc2ccccc2s1 | > 47.5 | > 34.2 | 19.2 | 16.3 | > 100 | > 100 | 5.37 | 20.9 | 14.8 | > 100 |  |  |  |  |  |  |  |  |  | 
24 | N#CC(C#N)=CNC(=S)c1ccncc1 | > 100 | > 100 | > 100 | > 100 | > 100 | 80.3 | > 100 | > 100 | > 100 | > 100 |  |  |  |  |  |  |  |  |  | 
25 | Brc1cccc(Nc2nc(-c3cccs3)nc3ccc(Br)cc23)c1 | 64.6 | 45.1 | 94.5 | > 100 | 42.1 | > 100 | > 100 | > 100 | > 100 | > 100 |  |  |  |  |  |  |  |  |  | 
26 | COc1ccc2cc(-c3ccc(-c4ccc(C(=N)N)s4)s3)ccc2c1 | 5.42 | 17.6 | 6.7 | 59.3 | 11.7 | 38.5 | 5.34 | 50 | 33.2 | 4.24 | 2.46 | 23.6 | 5.07 | 2.66 | 3.35 | 17.6 | 1.84 | 16.6 | 17.9 | 2.04
27 | COc1ccc(C#CC(=O)O)c(OC)c1 | > 100 | > 100 | > 100 | > 100 | > 100 | > 100 | > 100 | > 100 | > 100 | > 100 |  |  |  |  |  |  |  |  |  | 
28 | CSc1c(C#N)c(N)n2c1C(=O)N(c1ccccc1)C2=S | 45.6 | > 100 |  | > 100 | > 100 | > 100 | > 100 | 80.7 | > 100 | 78.3 |  |  |  |  |  |  |  |  |  | 
29 | O=C(CNc1ccccc1Cl)Nn1c(-c2ccccc2)nc2ccccc2c1=O | > 10 | 91.1 |  | 81.1 | 39.8 | 25.5 | 65.7 | 89.5 | > 100 | 34.6 |  |  |  |  |  |  |  |  |  | 
30 | COc1cc2c(cc1-c1c(C)noc1C)cc(C)c(=O)n2Cc1ccccn1 | > 100 | > 100 | > 100 | > 100 | 17.3 | > 100 | 3.77 | 13.3 | 7.82 | 22.2 | 0.809 | 1.59 | 2.3 | 2.46 | 1.79 | 3.89 | 0.301 | 0.318 | 0.554 | 0.566
31 | O=C(NCCCN(CCCCN(CCCNC(=O)C(F)(F)F)Cc1ccccc1)Cc1ccccc1)C(F)(F)F | 34.1 | 30 |  | 34.4 | 14.7 | 28.1 | 36.3 | 31.4 | 36.1 | 26.8 |  |  |  |  |  |  |  |  |  | 
